Tests used:
[1] = tested on: Tyrosine-protein kinase ABL1 (Homo sapiens), P00519 [H396P]; conditions: Compound concentration 100.0 nM
[2] = molecular target: 5'-AMP-activated protein kinase catalytic subunit alpha-1 (Homo sapiens) (UniProt Q13131); conditions: Compound concentration 100.0 nM
[3] = molecular target: Bone morphogenetic protein receptor type-2 (Homo sapiens) (UniProt Q13873); conditions: Compound concentration 100.0 nM
[4] = molecular target: Cytoplasmic tyrosine-protein kinase BMX (Homo sapiens) (UniProt P51813); conditions: Compound concentration 100.0 nM
[5] = molecular target: Cyclin-dependent kinase 4 (Homo sapiens) (UniProt P11802); conditions: Compound concentration 100.0 nM
[6] = molecular target: Cyclin-dependent kinase-like 1 (Homo sapiens) (UniProt Q00532); conditions: Compound concentration 100.0 nM
[7] = tested on: Epidermal growth factor receptor (Homo sapiens), P00533 [L861Q]; conditions: Compound concentration 100.0 nM
[8] = molecular target: Tyrosine-protein kinase FRK (Homo sapiens) (UniProt P42685); conditions: Compound concentration 100.0 nM
Chain of Tyrosine-protein kinase FRK (Homo sapiens) (P42685 whole entry): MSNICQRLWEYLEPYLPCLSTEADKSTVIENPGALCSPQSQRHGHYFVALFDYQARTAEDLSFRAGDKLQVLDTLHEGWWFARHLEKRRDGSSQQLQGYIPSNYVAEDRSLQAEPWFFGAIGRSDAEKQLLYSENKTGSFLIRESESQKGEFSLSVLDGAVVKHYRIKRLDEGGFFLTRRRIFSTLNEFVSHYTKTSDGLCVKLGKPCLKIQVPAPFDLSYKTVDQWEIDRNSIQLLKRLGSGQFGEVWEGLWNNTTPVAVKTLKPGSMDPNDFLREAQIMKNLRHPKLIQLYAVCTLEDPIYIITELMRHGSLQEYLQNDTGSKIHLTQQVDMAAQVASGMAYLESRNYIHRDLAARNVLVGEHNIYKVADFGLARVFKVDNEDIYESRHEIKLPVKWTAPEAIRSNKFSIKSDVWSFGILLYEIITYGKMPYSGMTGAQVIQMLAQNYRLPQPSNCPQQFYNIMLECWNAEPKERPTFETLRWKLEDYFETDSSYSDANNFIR

[9] = molecular target: Rhodopsin kinase GRK7 (Homo sapiens) (UniProt Q8WTQ7); conditions: Compound concentration 100.0 nM
[10] = molecular target: MAP/microtubule affinity-regulating kinase 3 (Homo sapiens) (UniProt P27448); conditions: Compound concentration 100.0 nM
[11] = molecular target: Myosin light chain kinase, smooth muscle (Homo sapiens) (UniProt Q15746); conditions: Compound concentration 100.0 nM
Chain of Myosin light chain kinase, smooth muscle (Homo sapiens) (Q15746 whole entry): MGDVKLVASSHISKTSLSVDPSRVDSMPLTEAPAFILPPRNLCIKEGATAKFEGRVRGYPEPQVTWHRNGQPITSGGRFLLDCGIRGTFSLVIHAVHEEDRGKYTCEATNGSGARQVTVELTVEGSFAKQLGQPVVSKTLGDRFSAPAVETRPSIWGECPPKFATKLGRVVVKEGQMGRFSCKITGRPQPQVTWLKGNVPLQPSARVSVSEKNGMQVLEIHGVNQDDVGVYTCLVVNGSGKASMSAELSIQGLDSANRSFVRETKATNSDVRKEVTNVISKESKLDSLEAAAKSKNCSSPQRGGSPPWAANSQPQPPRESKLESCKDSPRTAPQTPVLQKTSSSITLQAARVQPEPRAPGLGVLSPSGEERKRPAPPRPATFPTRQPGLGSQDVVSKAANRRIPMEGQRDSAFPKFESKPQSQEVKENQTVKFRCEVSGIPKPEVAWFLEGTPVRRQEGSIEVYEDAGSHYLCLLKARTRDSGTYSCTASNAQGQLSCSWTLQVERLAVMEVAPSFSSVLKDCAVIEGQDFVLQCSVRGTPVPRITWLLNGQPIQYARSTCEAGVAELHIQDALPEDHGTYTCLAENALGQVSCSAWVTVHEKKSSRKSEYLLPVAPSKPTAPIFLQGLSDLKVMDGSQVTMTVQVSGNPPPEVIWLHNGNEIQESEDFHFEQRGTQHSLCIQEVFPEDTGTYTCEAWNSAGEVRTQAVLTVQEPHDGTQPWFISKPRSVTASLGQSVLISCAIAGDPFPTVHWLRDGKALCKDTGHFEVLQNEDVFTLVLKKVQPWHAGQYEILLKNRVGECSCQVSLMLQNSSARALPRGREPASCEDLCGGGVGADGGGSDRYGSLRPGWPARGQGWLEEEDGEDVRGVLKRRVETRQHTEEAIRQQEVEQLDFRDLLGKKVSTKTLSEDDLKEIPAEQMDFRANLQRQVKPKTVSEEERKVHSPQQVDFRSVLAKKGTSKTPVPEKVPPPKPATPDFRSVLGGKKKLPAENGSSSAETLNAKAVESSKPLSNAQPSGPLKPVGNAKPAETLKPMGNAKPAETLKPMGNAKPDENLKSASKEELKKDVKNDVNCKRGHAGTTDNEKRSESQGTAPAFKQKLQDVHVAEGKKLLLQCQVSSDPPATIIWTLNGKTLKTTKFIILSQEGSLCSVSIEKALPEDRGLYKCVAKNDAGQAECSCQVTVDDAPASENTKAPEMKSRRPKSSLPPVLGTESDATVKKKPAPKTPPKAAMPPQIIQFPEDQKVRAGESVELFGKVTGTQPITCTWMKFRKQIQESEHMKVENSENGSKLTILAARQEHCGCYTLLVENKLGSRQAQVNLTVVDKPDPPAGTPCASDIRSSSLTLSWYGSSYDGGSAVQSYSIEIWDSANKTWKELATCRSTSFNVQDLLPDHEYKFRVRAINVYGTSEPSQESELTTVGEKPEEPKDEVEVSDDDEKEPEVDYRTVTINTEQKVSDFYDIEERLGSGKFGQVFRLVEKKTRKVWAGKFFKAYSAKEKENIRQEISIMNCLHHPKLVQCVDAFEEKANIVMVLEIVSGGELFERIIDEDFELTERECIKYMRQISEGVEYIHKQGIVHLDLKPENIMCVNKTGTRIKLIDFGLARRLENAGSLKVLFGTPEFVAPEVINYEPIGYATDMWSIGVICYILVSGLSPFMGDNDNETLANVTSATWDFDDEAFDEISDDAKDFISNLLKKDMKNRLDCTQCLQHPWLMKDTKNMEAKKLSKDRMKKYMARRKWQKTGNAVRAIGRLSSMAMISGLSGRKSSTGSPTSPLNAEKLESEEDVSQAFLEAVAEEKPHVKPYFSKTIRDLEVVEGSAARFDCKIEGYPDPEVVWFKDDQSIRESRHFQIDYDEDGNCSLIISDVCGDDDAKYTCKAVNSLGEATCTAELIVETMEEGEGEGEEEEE

[12] = molecular target: T1, Serine/threonine-protein kinase Nek1 (Homo sapiens) (UniProt Q96PY6); conditions: Compound concentration 100.0 nM
T1 sequence (whole entry): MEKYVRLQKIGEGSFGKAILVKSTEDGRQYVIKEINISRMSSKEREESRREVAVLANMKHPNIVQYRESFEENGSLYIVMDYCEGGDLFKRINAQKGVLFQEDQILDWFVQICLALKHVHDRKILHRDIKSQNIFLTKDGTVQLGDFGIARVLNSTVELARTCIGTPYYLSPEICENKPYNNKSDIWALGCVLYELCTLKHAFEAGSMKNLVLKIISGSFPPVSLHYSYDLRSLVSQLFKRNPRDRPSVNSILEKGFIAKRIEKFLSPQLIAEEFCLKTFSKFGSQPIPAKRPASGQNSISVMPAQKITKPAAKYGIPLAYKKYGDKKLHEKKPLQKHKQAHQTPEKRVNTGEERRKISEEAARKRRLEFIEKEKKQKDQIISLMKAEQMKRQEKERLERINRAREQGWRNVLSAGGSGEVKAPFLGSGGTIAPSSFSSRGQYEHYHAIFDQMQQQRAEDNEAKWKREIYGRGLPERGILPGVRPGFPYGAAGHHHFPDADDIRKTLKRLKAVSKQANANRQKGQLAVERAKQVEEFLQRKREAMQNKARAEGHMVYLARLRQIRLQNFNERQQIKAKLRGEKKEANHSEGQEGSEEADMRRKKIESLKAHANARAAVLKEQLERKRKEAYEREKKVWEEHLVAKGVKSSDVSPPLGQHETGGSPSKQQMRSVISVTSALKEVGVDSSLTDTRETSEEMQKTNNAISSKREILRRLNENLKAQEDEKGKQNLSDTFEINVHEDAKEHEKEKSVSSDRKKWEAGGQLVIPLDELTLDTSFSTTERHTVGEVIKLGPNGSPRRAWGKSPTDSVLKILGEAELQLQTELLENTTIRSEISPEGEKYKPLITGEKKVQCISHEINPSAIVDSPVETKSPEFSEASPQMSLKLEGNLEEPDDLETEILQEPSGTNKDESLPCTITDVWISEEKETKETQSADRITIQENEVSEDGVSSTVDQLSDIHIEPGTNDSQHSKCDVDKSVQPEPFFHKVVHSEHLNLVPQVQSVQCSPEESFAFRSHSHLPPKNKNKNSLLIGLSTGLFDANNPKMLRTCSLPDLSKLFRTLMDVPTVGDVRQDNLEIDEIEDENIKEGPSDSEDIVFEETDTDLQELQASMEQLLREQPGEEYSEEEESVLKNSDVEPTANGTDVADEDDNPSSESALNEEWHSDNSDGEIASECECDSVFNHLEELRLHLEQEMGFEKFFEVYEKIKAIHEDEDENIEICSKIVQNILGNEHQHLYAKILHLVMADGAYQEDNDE

[13] = molecular target: Serine/threonine-protein kinase NLK (Homo sapiens) (UniProt Q9UBE8); conditions: Compound concentration 100.0 nM
[14] = molecular target: Mitogen-activated protein kinase 12 (Homo sapiens) (UniProt P53778); conditions: Compound concentration 100.0 nM
[15] = molecular target: Cyclin-dependent kinase 17 (Homo sapiens) (UniProt Q00537); conditions: Compound concentration 100.0 nM
[16] = tested on: Phosphatidylinositol 4,5-bisphosphate 3-kinase catalytic subunit alpha isoform (Homo sapiens), P42336 [E545K]; conditions: Compound concentration 100.0 nM
[17] = molecular target: Phosphatidylinositol 4-phosphate 5-kinase type-1 gamma (Homo sapiens) (UniProt O60331); conditions: Compound concentration 100.0 nM
[18] = molecular target: Serine/threonine-protein kinase PLK3 (Homo sapiens) (UniProt Q9H4B4); conditions: Compound concentration 100.0 nM
Chain of Serine/threonine-protein kinase PLK3 (Homo sapiens) (Q9H4B4 whole entry, looked up): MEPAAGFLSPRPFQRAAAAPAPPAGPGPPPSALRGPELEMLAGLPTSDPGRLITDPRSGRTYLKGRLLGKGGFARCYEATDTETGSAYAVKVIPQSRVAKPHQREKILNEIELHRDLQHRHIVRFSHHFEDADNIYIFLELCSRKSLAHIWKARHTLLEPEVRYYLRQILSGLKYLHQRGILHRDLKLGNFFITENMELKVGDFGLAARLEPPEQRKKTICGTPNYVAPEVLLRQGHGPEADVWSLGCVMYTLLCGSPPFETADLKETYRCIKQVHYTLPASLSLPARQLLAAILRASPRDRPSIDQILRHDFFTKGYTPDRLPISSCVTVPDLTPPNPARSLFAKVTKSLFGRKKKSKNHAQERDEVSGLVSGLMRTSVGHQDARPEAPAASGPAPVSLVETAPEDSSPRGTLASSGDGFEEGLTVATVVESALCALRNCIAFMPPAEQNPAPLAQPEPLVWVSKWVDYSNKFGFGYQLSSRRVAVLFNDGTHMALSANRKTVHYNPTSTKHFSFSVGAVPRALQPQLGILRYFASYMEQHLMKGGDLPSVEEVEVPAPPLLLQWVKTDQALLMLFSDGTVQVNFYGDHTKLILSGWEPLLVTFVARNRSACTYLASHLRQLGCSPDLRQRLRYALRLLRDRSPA

[19] = molecular target: Protein kinase C iota type (Homo sapiens) (UniProt P41743); conditions: Compound concentration 100.0 nM
Chain of Protein kinase C iota type (Homo sapiens) (P41743 whole entry): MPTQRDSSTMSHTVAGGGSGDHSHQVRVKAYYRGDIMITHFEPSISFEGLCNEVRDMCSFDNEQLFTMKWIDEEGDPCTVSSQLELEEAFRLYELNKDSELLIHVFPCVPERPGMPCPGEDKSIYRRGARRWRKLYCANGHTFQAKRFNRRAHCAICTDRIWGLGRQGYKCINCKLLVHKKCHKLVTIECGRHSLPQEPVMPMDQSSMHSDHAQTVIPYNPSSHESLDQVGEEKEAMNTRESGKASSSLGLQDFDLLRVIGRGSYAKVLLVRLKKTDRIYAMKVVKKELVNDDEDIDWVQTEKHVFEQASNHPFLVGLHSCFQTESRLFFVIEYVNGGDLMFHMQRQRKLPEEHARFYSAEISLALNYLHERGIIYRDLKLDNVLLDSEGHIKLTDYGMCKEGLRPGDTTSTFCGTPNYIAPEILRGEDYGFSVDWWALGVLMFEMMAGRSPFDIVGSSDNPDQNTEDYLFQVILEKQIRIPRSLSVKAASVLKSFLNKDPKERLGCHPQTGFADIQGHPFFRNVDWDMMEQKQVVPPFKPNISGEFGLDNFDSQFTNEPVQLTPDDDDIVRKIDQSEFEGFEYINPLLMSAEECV

[20] = molecular target: Serine/threonine-protein kinase D2 (Homo sapiens) (UniProt Q9BZL6); conditions: Compound concentration 100.0 nM
Chain of Serine/threonine-protein kinase D2 (Homo sapiens) (Q9BZL6 whole entry): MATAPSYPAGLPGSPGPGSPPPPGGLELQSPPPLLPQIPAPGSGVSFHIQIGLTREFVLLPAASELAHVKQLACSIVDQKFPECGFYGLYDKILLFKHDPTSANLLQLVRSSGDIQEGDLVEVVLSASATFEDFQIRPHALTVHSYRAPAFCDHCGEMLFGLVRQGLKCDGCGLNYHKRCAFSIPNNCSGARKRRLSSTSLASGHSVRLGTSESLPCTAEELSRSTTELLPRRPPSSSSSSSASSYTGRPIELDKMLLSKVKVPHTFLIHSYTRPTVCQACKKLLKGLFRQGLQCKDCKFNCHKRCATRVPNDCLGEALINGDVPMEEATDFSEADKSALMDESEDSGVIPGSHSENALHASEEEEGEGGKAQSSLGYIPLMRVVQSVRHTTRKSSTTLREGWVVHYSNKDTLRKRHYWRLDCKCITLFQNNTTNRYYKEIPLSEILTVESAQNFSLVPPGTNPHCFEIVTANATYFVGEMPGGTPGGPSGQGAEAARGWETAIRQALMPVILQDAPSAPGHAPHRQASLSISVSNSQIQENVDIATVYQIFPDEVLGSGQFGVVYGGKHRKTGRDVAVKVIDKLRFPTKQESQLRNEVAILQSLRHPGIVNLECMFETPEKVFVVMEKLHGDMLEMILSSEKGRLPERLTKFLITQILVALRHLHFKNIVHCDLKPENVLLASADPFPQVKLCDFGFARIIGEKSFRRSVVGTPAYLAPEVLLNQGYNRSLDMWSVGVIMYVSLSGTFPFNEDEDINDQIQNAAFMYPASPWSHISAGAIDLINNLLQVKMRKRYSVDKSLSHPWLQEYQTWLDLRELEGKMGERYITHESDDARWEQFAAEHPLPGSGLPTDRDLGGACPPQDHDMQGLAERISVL

[21] = molecular target: Serine/threonine-protein kinase RIO1 (Homo sapiens) (UniProt Q9BRS2); conditions: Compound concentration 100.0 nM
[22] = molecular target: Serine/threonine-protein kinase 36 (Homo sapiens) (UniProt Q9NRP7); conditions: Compound concentration 100.0 nM
[23] = molecular target: Tyrosine-protein kinase Tec (Homo sapiens) (UniProt P42680); conditions: Compound concentration 100.0 nM
[24] = molecular target: Serine/threonine-protein kinase ULK3 (Homo sapiens) (UniProt Q6PHR2); conditions: Compound concentration 100.0 nM
[25] = molecular target: 5-hydroxytryptamine receptor 7 (Homo sapiens) (UniProt P34969); conditions: Compound concentration 10.0 uM
[26] = molecular target: Mu-type opioid receptor (Homo sapiens) (UniProt P35372); conditions: Compound concentration 10.0 uM
Chain of Mu-type opioid receptor (Homo sapiens) (P35372 whole entry): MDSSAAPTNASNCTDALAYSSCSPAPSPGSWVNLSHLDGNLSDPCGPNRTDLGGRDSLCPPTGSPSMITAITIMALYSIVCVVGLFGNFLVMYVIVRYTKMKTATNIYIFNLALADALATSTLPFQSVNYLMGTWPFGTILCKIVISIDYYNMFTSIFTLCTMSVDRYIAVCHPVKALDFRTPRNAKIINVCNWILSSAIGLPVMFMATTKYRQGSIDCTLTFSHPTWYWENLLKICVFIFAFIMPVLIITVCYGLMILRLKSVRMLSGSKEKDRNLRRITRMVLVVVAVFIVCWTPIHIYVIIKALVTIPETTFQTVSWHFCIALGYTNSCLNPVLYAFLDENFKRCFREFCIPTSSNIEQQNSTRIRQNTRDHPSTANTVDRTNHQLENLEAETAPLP

[27] = molecular target: GABA-A receptor; anion channel (Rattus norvegicus) (UniProt O09028+P15431+P18506+P18508+P19969+P20236+P23574+P23576+P28471+P28473+P30191+P62813+P63079+P63138+Q91ZM7+Q9ES14); conditions: Compound concentration 10.0 uM

CCOC(=O)c1cc2cc(-c3cc(C(=O)NCc4ccc(C(=O)O)cc4)nn3C)ccc2[nH]1 [BI 4394]
inactive: residual activity [1] 88% | residual activity [2] 100% | residual activity [3] 82% | residual activity [4] 82% | residual activity [5] 82% | residual activity [6] 77% | residual activity [7] 100% | residual activity [8] 100% | residual activity [9] 86% | residual activity [10] 93% | residual activity [11] 100% | residual activity [12] 100% | residual activity [13] 86% | residual activity [14] 77% | residual activity [15] 100% | residual activity [16] 100% | residual activity [17] 100% | residual activity [18] 70% | residual activity [19] 87% | residual activity [20] 100% | residual activity [21] 96% | residual activity [22] 97% | residual activity [23] 99% | residual activity [24] 100% | inhibition [25] 5.88% | inhibition [26] 0.37% | inhibition [27] 15.3%

Cn1nc(C(=O)NCc2ccc(C(=O)O)cc2)cc1-c1ccc2[nH]ccc2c1 [BI 4395]
inactive: residual activity [1] 71% | residual activity [2] 81% | residual activity [3] 83% | residual activity [4] 98% | residual activity [5] 96% | residual activity [6] 70% | residual activity [7] 69% | residual activity [8] 100% | residual activity [9] 100% | residual activity [10] 81% | residual activity [11] 62% | residual activity [12] 100% | residual activity [13] 100% | residual activity [14] 90% | residual activity [15] 77% | residual activity [16] 87% | residual activity [17] 91% | residual activity [18] 94% | residual activity [19] 80% | residual activity [20] 100% | residual activity [21] 76% | residual activity [22] 93% | residual activity [23] 89% | residual activity [24] 99% | inhibition [25] -4.31% | inhibition [26] 2.9% | inhibition [27] 26.6%

Source: ChEMBL document CHEMBL4507281, “Data for DCP probe BI-4394” (2021)
